The subject of assay [1] is K562. Nature of the assay: Cytotoxicity against human K562 cells. The format is functional, cell-based.
The subject of assay [2] is K562. Nature of the assay: Cytotoxicity against human K562 cells after 72 hrs by MTT assay. It is filed as functional, cell-based. The conditions noted are these: K562, 72 h.
The target in assay [3] is Protein kinase C alpha type (Homo sapiens) (UniProt P17252). The assay is described as follows: Inhibition of human full length (His)6-tagged PKCalpha expressed in insect Sf21 cells using histone H1 as substrate assessed as residual enzyme activity at 1 uM measured for 30 mins by [gamma-33P]ATP-based kinase assay.
In assay [4] the target is Protein kinase C gamma type (Homo sapiens) (UniProt P05129). The assay is described as follows: Inhibition of human full length (His)6-tagged PKCgamma expressed in insect Sf21 cells using histone H1 as substrate assessed as residual enzyme activity at 10 uM measured for 30 mins by [gamma-33P]ATP-based kinase assay.
Assay [5] deals with T1, Serine/threonine-protein kinase pim-1 (Homo sapiens, UniProt P11309). The assay is described as follows: Inhibition of human full length (His)6-tagged Pim-1 expressed in insect Sf21 cells using RSRHSSYPAGT as substrate assessed as residual enzyme activity at 10 uM measured for 30 mins by [gamma-33P]ATP-based kinase assay.
Target sequence in this assay (P11309 whole entry, looked up): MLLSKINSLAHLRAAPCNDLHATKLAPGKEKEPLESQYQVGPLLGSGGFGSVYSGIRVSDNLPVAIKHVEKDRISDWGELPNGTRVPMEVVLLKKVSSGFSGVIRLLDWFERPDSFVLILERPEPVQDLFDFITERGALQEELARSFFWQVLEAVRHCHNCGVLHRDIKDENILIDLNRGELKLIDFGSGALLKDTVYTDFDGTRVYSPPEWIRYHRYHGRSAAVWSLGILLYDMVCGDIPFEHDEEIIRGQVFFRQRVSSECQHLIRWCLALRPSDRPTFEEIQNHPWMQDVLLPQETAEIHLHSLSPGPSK
Assay [6] in a line: Cytotoxicity against human HCT116 cells after 72 hrs by MTT assay. The conditions noted are these: HCT-116, 72 h. It is filed as functional, cell-based.
For assay [7], the target named is Protein kinase C gamma type (Homo sapiens) (UniProt P05129). The assay is described as follows: Inhibition of human full length (His)6-tagged PKCgamma expressed in insect Sf21 cells using histone H1 as substrate assessed as residual enzyme activity at 1 uM measured for 30 mins by [gamma-33P]ATP-based kinase assay.
For assay [8], the target named is Protein kinase C alpha type (Homo sapiens) (UniProt P17252). Nature of the assay: Inhibition of human full length (His)6-tagged PKCalpha expressed in insect Sf21 cells using histone H1 as substrate assessed as residual enzyme activity at 10 uM measured for 30 mins by [gamma-33P]ATP-based kinase assay.
The target in assay [9] is T1, Serine/threonine-protein kinase pim-1. The assay is described as follows: Inhibition of human full length (His)6-tagged Pim-1 expressed in insect Sf21 cells using RSRHSSYPAGT as substrate assessed as residual enzyme activity at 1 uM measured for 30 mins by [gamma-33P]ATP-based kinase assay.
Target sequence in this assay (P11309 whole entry, looked up): as above
Assay [10] has as its system Calf thymus DNA. The assay is described as follows: Displacement of EtBr from calf thymus double stranded DNA by fluorescence spectrophotometric analysis. It is filed as nucleic-acid assay, Bos taurus.
The test system of assay [11] is Calf thymus DNA. Nature of the assay: Binding affinity to calf thymus double stranded DNA assessed as dsDNA level causing quenching of compound fluorescence by fluorescence spectrophotometric analysis. The format is nucleic-acid assay, Bos taurus.
In assay [12] the target is Serine/threonine-protein kinase pim-2 (Homo sapiens, UniProt Q9P1W9). Nature of the assay: Inhibition of human full length GST-tagged Pim-2 expressed in Escherichia coli using RSRHSSYPAGT as substrate measured for 30 mins by [gamma-33P]ATP-based kinase assay.
Chain of Serine/threonine-protein kinase pim-2 (Q9P1W9 whole entry): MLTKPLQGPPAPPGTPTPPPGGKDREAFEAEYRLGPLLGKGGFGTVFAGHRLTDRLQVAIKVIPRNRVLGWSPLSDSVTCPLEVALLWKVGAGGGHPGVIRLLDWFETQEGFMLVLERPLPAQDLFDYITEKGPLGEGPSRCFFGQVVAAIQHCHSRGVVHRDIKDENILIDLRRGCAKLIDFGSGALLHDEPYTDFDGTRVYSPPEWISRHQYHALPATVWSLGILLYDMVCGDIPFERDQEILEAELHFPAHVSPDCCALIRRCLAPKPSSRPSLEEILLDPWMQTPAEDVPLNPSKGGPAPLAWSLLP
For assay [13], the target named is T2, DNA topoisomerase 1 (Homo sapiens) (UniProt P11387).
T2 sequence (whole entry): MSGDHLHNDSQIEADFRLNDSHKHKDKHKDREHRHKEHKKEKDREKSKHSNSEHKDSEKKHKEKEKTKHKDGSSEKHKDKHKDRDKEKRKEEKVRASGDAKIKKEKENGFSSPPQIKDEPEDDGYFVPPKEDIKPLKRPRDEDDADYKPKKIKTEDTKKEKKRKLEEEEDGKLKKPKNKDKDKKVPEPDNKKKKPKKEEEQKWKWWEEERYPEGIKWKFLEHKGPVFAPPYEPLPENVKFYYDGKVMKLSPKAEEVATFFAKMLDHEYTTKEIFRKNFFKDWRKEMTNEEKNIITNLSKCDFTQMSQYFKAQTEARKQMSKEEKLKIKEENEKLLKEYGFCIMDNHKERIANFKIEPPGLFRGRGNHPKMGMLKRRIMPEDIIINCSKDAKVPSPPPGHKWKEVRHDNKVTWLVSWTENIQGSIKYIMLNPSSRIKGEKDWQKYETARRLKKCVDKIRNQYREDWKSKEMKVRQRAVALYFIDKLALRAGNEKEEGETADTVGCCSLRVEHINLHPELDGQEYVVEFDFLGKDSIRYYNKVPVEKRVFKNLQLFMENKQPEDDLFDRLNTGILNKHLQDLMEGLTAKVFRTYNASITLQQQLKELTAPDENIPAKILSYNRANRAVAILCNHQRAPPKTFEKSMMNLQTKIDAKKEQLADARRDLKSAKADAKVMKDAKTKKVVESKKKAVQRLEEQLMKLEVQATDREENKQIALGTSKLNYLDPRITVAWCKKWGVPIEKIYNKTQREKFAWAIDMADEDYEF
Nature of the assay: Inhibition of human topoisomerase1 activity at 20 uM using pBR322 plasmid DNA as substrate incubated for 30 mins by EtBr-based gel electrophoresis.

Assay [14] has as its target T1, Serine/threonine-protein kinase pim-1. Nature of the assay: Inhibition of human full length (His)6-tagged Pim-1 expressed in insect Sf21 cells using RSRHSSYPAGT as substrate measured for 30 mins by [gamma-33P]ATP-based kinase assay.
Target sequence in this assay (P11309 whole entry): as the sequence (P11309 whole entry, looked up) above
In assay [15] the target is Serine/threonine-protein kinase pim-3 (Homo sapiens, UniProt Q86V86). Nature of the assay: Inhibition of human full length (His)6-tagged Pim-3 expressed in insect Sf21 cells using RSRHSSYPAGT as substrate measured for 30 mins by [gamma-33P]ATP-based kinase assay.

The structures appear in SMILES notation. pIC50: −log10 of the molar value. The source made the active and inactive calls. No cut-off for these calls is given here.

The pIC50 is the IC50 on a negative log10 scale, so that one unit is a factor of ten. With `O=C1NCc2c1c1c3ccccc3[nH]c1c1[nH]c3ccccc3c21` [STAUROSPORINONE], the pIC50 in assay [1] was 5.11.
Regarding `O=c1[nH][nH]c2c1c1c3ccccc3[nH]c1c1[nH]c3ccccc3c12`, the pIC50 in assay [2] is 5.06; in assay [6] it was 5.46. Further, the Activity in assay [3] worked out at 107%; in assay [4], 99%; in assay [5], 8%; in assay [7] it was 97%; in assay [8] it was 110%; in [9], 47%.
For `c1ccc2c(c1)[nH]c1c3[nH]c4ccccc4c3c3[nH]ncc3c21`, the pIC50 in assay [10] is 4.80; in assay [2] it was 5.35; in [11], 4.05; in assay [6], 5.38; in [12] it was 6.23; in assay [14], 6.82. The compound also gave a pIC50 in assay [15] of 7.66. In addition, the Activity in [3] was 103%; in [4], 91%; in [5], 2%; in assay [7] it was 101%; in [8] it was 108%; in assay [9] it was 13%. Also, in [13], the inhibition entry was “inactive”.
For `c1ccc2c(-c3cn[nH]c3-c3c[nH]c4ccccc34)c[nH]c2c1`, the results for the pIC50 in assay [2] and in assay [6] were 4.74 and 4.52, respectively. For the same compound, the Activity came to 112% in [3]; 91% in assay [4]; 73% in assay [5]; 105% in assay [7]; 100% in assay [8]; 98% in [9].
Turning to `O=c1[nH][nH]c(-c2c[nH]c3ccccc23)c1-c1c[nH]c2ccccc12`, the pIC50 in [2] and in assay [6] was less than 4.30 throughout. In addition, the Activity in assay [3] was found to be 117%; in assay [4] it was 92%; in assay [5], 67%; in assay [7], 100%; in assay [8], 93%; in assay [9], 94%.

The values above are taken from ChEMBL document CHEMBL3813662, “Synthesis and biological activity of pyrazole analogues of the staurosporine aglycon K252c” (Bioorg Med Chem, 2016).
